Legend:
[1] = system: CCRF-CEM; experiment: NCI-60 SRB screen; format: cell-based; conditions: Homo sapiens, single dose 10^−5 M, read-out: Growth inhibition (%)
[2] = system: HL-60(TB); experiment: NCI-60 SRB screen; format: cell-based, human; conditions: Homo sapiens; HL-60 (TB); single dose 10^−5 M; read-out: Growth inhibition (%)
[3] = system: K-562; experiment: NCI-60 SRB screen; format: cell-based, human; conditions: Homo sapiens, K562; K-562; single dose 10^−5 M; read-out: Growth inhibition (%)
[4] = system: MOLT-4; experiment: NCI-60 SRB screen; format: cell-based; conditions: Homo sapiens; MOLT-4; single dose 10^−5 M; read-out: Growth inhibition (%)
[5] = system: SR; experiment: NCI-60 SRB screen; format: cell-based; conditions: Homo sapiens, single dose 10^−5 M, read-out: Growth inhibition (%)
[6] = system: A549/ATCC; experiment: NCI-60 SRB screen; format: cell-based, human; conditions: Homo sapiens, single dose 10^−5 M, read-out: Growth inhibition (%)
[7] = system: EKVX; experiment: NCI-60 SRB screen; format: cell-based, human; conditions: Homo sapiens, single dose 10^−5 M, read-out: Growth inhibition (%)
[8] = system: HOP-62; experiment: NCI-60 SRB screen; format: cell-based, human; conditions: Homo sapiens; HOP-62; single dose 10^−5 M; read-out: Growth inhibition (%)
[9] = system: NCI-H226; experiment: NCI-60 SRB screen; format: cell-based, human; conditions: Homo sapiens; NCI-H226; single dose 10^−5 M; read-out: Growth inhibition (%)
[10] = system: NCI-H23; experiment: NCI-60 SRB screen; format: cell-based, human; conditions: Homo sapiens; NCI-H23; single dose 10^−5 M; read-out: Growth inhibition (%)
[11] = system: NCI-H322M; experiment: NCI-60 SRB screen; format: cell-based, human; conditions: Homo sapiens, single dose 10^−5 M, read-out: Growth inhibition (%)
[12] = system: NCI-H460; experiment: NCI-60 SRB screen; format: cell-based, human; conditions: Homo sapiens; NCI-H460; single dose 10^−5 M; read-out: Growth inhibition (%)
[13] = system: NCI-H522; experiment: NCI-60 SRB screen; format: cell-based, human; conditions: Homo sapiens; NCI-H522; single dose 10^−5 M; read-out: Growth inhibition (%)
[14] = system: COLO 205; experiment: NCI-60 SRB screen; format: cell-based, human; conditions: Homo sapiens; COLO 205; single dose 10^−5 M; read-out: Growth inhibition (%)
[15] = system: HCC-2998; experiment: NCI-60 SRB screen; format: cell-based, human; conditions: Homo sapiens; HCC-2998; single dose 10^−5 M; read-out: Growth inhibition (%)
[16] = system: HCT-116; experiment: NCI-60 SRB screen; format: cell-based, human; conditions: Homo sapiens; HCT-116; single dose 10^−5 M; read-out: Growth inhibition (%)
[17] = system: HCT-15; experiment: NCI-60 SRB screen; format: cell-based, human; conditions: Homo sapiens; HCT-15; single dose 10^−5 M; read-out: Growth inhibition (%)
[18] = system: HT-29; experiment: NCI-60 SRB screen; format: cell-based; conditions: Homo sapiens; HT-29; single dose 10^−5 M; read-out: Growth inhibition (%)
[19] = system: KM12; experiment: NCI-60 SRB screen; format: cell-based, human; conditions: Homo sapiens; KM12; single dose 10^−5 M; read-out: Growth inhibition (%)
[20] = system: SW-620; experiment: NCI-60 SRB screen; format: cell-based; conditions: Homo sapiens; SW-620; single dose 10^−5 M; read-out: Growth inhibition (%)
[21] = system: SF-268; experiment: NCI-60 SRB screen; format: cell-based, human; conditions: Homo sapiens; SF-268; single dose 10^−5 M; read-out: Growth inhibition (%)
[22] = system: SF-295; experiment: NCI-60 SRB screen; format: cell-based, human; conditions: Homo sapiens; SF-295; single dose 10^−5 M; read-out: Growth inhibition (%)
[23] = system: LOX IMVI; experiment: NCI-60 SRB screen; format: cell-based, human; conditions: Homo sapiens, single dose 10^−5 M, read-out: Growth inhibition (%)
[24] = system: MALME-3M; experiment: NCI-60 SRB screen; format: cell-based, human; conditions: Homo sapiens, single dose 10^−5 M, read-out: Growth inhibition (%)
[25] = system: M14; experiment: NCI-60 SRB screen; format: cell-based, human; conditions: Homo sapiens; M14; single dose 10^−5 M; read-out: Growth inhibition (%)
[26] = system: MDA-MB-435; experiment: NCI-60 SRB screen; format: cell-based; conditions: Homo sapiens, MDA-MB-435, read-out: Growth inhibition (%)
[27] = system: SK-MEL-2; experiment: NCI-60 SRB screen; format: cell-based, human; conditions: Homo sapiens; SK-MEL-2; single dose 10^−5 M; read-out: Growth inhibition (%)
[28] = system: SK-MEL-28; experiment: NCI-60 SRB screen; format: cell-based; conditions: Homo sapiens; SK-MEL-28; single dose 10^−5 M; read-out: Growth inhibition (%)
[29] = system: SK-MEL-5; experiment: NCI-60 SRB screen; format: cell-based, human; conditions: Homo sapiens; SK-MEL-5; single dose 10^−5 M; read-out: Growth inhibition (%)
[30] = system: UACC-257; experiment: NCI-60 SRB screen; format: cell-based, human; conditions: Homo sapiens, UACC-257; UACC-275 (so in the source); single dose 10^−5 M; read-out: Growth inhibition (%)
[31] = system: UACC-62; experiment: NCI-60 SRB screen; format: cell-based, human; conditions: Homo sapiens; UACC-62; single dose 10^−5 M; read-out: Growth inhibition (%)
[32] = system: IGROV1; experiment: NCI-60 SRB screen; format: cell-based, human; conditions: Homo sapiens, IGROV-1; IGROV1; single dose 10^−5 M; read-out: Growth inhibition (%)
[33] = system: OVCAR-3; experiment: NCI-60 SRB screen; format: cell-based, human; conditions: Homo sapiens; OVCAR-3; single dose 10^−5 M; read-out: Growth inhibition (%)
[34] = system: OVCAR-4; experiment: NCI-60 SRB screen; format: cell-based, human; conditions: Homo sapiens; OVCAR-4; single dose 10^−5 M; read-out: Growth inhibition (%)
[35] = system: OVCAR-8; experiment: NCI-60 SRB screen; format: cell-based, human; conditions: Homo sapiens; OVCAR-8; single dose 10^−5 M; read-out: Growth inhibition (%)
[36] = system: NCI/ADR-RES; experiment: NCI-60 SRB screen; format: cell-based, human; conditions: Homo sapiens, single dose 10^−5 M, read-out: Growth inhibition (%)
[37] = system: SK-OV-3; experiment: NCI-60 SRB screen; format: cell-based, human; conditions: Homo sapiens; SK-OV-3; single dose 10^−5 M; read-out: Growth inhibition (%)
[38] = system: 786-0; experiment: NCI-60 SRB screen; format: cell-based; conditions: Homo sapiens; 786-0; single dose 10^−5 M; read-out: Growth inhibition (%)
[39] = system: ACHN; experiment: NCI-60 SRB screen; format: cell-based; conditions: Homo sapiens, single dose 10^−5 M, read-out: Growth inhibition (%)
[40] = system: RXF 393; experiment: NCI-60 SRB screen; format: cell-based, human; conditions: Homo sapiens; RXF 393; single dose 10^−5 M; read-out: Growth inhibition (%)
[41] = system: SN12C; experiment: NCI-60 SRB screen; format: cell-based, human; conditions: Homo sapiens, SN12C; SN 12 C; single dose 10^−5 M; read-out: Growth inhibition (%)
[42] = system: TK-10; experiment: NCI-60 SRB screen; format: cell-based, human; conditions: Homo sapiens; TK-10; single dose 10^−5 M; read-out: Growth inhibition (%)
[43] = system: UO-31; experiment: NCI-60 SRB screen; format: cell-based, human; conditions: Homo sapiens; UO-31; single dose 10^−5 M; read-out: Growth inhibition (%)
[44] = system: panel of 60 cancer cell lines; experiment: NCI-60 SRB screen, mean or range over the panel; format: cell-based, human; conditions: Homo sapiens; mean over the cell lines; single dose 10^−5 M; read-out: Mean growth inhibition (%)

O=C1NC(c2cccc([N+](=O)[O-])c2)c2sc3c(F)cccc3c2C1N1CCOCC1 (stereo not shown) [Compound 6b, 8-Fluoro-4-morpholino-1(3-nitrophenyl)-1,2-dihydro[1]benzothieno[2,3-c]pyridin-3(4H)-one]
inhibition at 10 µM [1]: -0.89% | inhibition at 10 µM [2]: 3% | inhibition at 10 µM [3]: 6.63% | inhibition at 10 µM [4]: 7.9% | inhibition at 10 µM [5]: 14.4% | inhibition at 10 µM [6]: -0.83% | inhibition at 10 µM [7]: 2.98% | inhibition at 10 µM [8]: 12.7% | inhibition at 10 µM [9]: 19.4% | inhibition at 10 µM [10]: 5.78% | inhibition at 10 µM [11]: -2.43% | inhibition at 10 µM [12]: 0.21% | inhibition at 10 µM [13]: 10.4% | inhibition at 10 µM [14]: -10.9% | inhibition at 10 µM [15]: -9.62% | inhibition at 10 µM [16]: 12.5% | inhibition at 10 µM [17]: -4.99% | inhibition at 10 µM [18]: 3.1% | inhibition at 10 µM [19]: 2.35% | inhibition at 10 µM [20]: 7.48% | inhibition at 10 µM [21]: 6.1% | inhibition at 10 µM [22]: 1.1% | inhibition at 10 µM [23]: -0.6% | inhibition at 10 µM [24]: 0.18% | inhibition at 10 µM [25]: -1.23% | inhibition at 10 µM [26]: -9.63% | inhibition at 10 µM [27]: -12.7% | inhibition at 10 µM [28]: -11.5% | inhibition at 10 µM [29]: 0.57% | inhibition at 10 µM [30]: -10.7% | inhibition at 10 µM [31]: 3.55% | inhibition at 10 µM [32]: 21.5% | inhibition at 10 µM [33]: 1.9% | inhibition at 10 µM [34]: 0.3% | inhibition at 10 µM [35]: 2.6% | inhibition at 10 µM [36]: 1.78% | inhibition at 10 µM [37]: 0.4% | inhibition at 10 µM [38]: -11.1% | inhibition at 10 µM [39]: 4.34% | inhibition at 10 µM [40]: 6.95% | inhibition at 10 µM [41]: 2.85% | inhibition at 10 µM [42]: -28.2% | inhibition at 10 µM [43]: 31.8% | inhibition at 10 µM [44]: 3.19%

O=C1NC(c2cccc([N+](=O)[O-])c2)c2sc3c(F)cccc3c2C1N1CCCCC1 (stereo not shown) [Compound 6c, 8-Fluoro-1-(3-nitrophenyl)-4-(piperidin-1-yl)-1,2-dihydro[1]benzothieno [2,3-c]pyridin-3(4H)-one]
inhibition at 10 µM [1]: 1.84% | inhibition at 10 µM [2]: -17% | inhibition at 10 µM [3]: 6.11% | inhibition at 10 µM [4]: 8.91% | inhibition at 10 µM [5]: 0.3% | inhibition at 10 µM [6]: -0.32% | inhibition at 10 µM [7]: 5.86% | inhibition at 10 µM [8]: 11.5% | inhibition at 10 µM [9]: 8.71% | inhibition at 10 µM [10]: 5.16% | inhibition at 10 µM [11]: 2.6% | inhibition at 10 µM [12]: -0.58% | inhibition at 10 µM [13]: 14% | inhibition at 10 µM [14]: -12.7% | inhibition at 10 µM [15]: 2.82% | inhibition at 10 µM [16]: 20.6% | inhibition at 10 µM [17]: 3.74% | inhibition at 10 µM [18]: 9% | inhibition at 10 µM [19]: 2.91% | inhibition at 10 µM [20]: 7.46% | inhibition at 10 µM [21]: 2.64% | inhibition at 10 µM [22]: 2.28% | inhibition at 10 µM [23]: 2.5% | inhibition at 10 µM [24]: -1.85% | inhibition at 10 µM [25]: 1.9% | inhibition at 10 µM [26]: -8.63% | inhibition at 10 µM [27]: -8.06% | inhibition at 10 µM [28]: -12.4% | inhibition at 10 µM [29]: 1.15% | inhibition at 10 µM [30]: -6.77% | inhibition at 10 µM [31]: 4.85% | inhibition at 10 µM [32]: 20.7% | inhibition at 10 µM [33]: -2.74% | inhibition at 10 µM [34]: -4.39% | inhibition at 10 µM [35]: 5% | inhibition at 10 µM [36]: -1.66% | inhibition at 10 µM [37]: -0.84% | inhibition at 10 µM [38]: -6.36% | inhibition at 10 µM [39]: 9.32% | inhibition at 10 µM [40]: 6.16% | inhibition at 10 µM [41]: 2.45% | inhibition at 10 µM [42]: -42.2% | inhibition at 10 µM [43]: 32.2% | inhibition at 10 µM [44]: 2.54%
